# Like-named read-outs stand apart in the source and are kept apart here.
# What was measured:
# [1] = target: menin (Homo sapiens (Human), UniProt O00255); experiment: Kd (Table 3A); format: binding
# [2] = system: MOLM-13; experiment: Long term proliferation, InCell (Table 3C), MOLM-13; format: cell-based; conditions: Homo sapiens, MOLM-13, InCell
# Protocol: (§1) Compounds of invention are tested in the 5 suspension lines by 14-day long-term proliferation assay.
# (§2) The compound is tested in 10-pt dose titration (client will determine the starting concentration and the dilution scheme) and the final DMSO concentration is kept at 0.2%.
# (§3) Vehicle and media control are also included. All treatments are done in triplicate.
# (§4) • 1) On Day 0, in a flat bottom 96-well plate, add 100 μL of cells per well at the densities optimized. • 2) Prepare compounds in DMSO at 500× final concentration. Dilute the compounds with DMSO at the dilution. • 3) Dilute the compounds in media at 3×final concentration. Add 50 μL of compound or DMSO at 3× final concentration to each well. Final volume in each well is 150 μL, and final concentration of DMSO is 0.2%. Also include 3 untreated control wells, by adding 50 μL of media alone. 4) Incubate plates for 96 hours. • 5) Count the cells using the Acumen, with capabilities for 96-well plates. Pipette cells up and down to mix in each well, and add desired volume of cells to a new flat bottom poly-D-lysine 96-well plate. Add Calcein AM at 1 μM final concentration. Let cells sit at RT for 10 mins followed by a quick spin to get cells settled on the bottom of the wells. Incubate the plate for additional 40 mins in the incubator. Take out the plate and read by Acumen. Calculate the cell numbers taken into account the dilution factors. • 6) Split the master plate. To do this take the total viable cell count calculated using step 5). Take the average of the replicates for each dose in order to be used in splitting the cells. • 7) Use a 96 well V-bottom plate to spin down the cells to remove old media and compound to split the cells. Based on the split ratio place the proper amount of media and cells into the V-bottom plate, and spin the plate at 1100 rpm for 5 minutes. • 8) Following the spin remove the media, careful not to disturb the cellpellet. • 9) Re-suspend pellet in 100 μL fresh media, and add to a new 96-well flat bottom plate. • 10) Add fresh compound, in the same manner as Step 3). • 11) Incubate plates for 72 hours. Repeat steps 5)-10) on Day 7. • 12) Incubate plates for 96 hours. Repeat Step 5)-10) on Day 11. • 13) Incubate 72 hours and repeat step 5) to take a final count. • 14) Data Analysis
# (§5) To calculate growth for days 4, 7, 11, and 14: • Calculate the split factor for day 4 to 7, day 7 to 11, and day 11-14.
# [3] = system: KG-1; experiment: Long term proliferation, InCell (Table 3C), KG-1; format: cell-based; conditions: Homo sapiens, KG-1, InCell
# Protocol: as §1, §2, §3, §4, §5
# [4] = system: MOLM-13; experiment: Long term proliferation, Cell Titer-Glo (Table 3B), MOLM-13; format: cell-based; conditions: Homo sapiens, MOLM-13, Cell Titer-Glo
# [5] = system: OCI-AML-3; experiment: Long term proliferation, InCell (Table 3C), OCI-AML-3; format: cell-based; conditions: Homo sapiens, OCI-AML-3, InCell
# Protocol: as §1, §2, §3, §4, §5
# [6] = system: OCI-AML-3; experiment: Long term proliferation, Cell Titer-Glo (Table 3B), OCI-AML-3; format: cell-based; conditions: Homo sapiens, OCI-AML-3, Cell Titer-Glo
# [7] = system: MV4-11; experiment: Long term proliferation, InCell (Table 3C), MV4-11; format: cell-based; conditions: Homo sapiens, MV4-11, InCell
# Protocol: as §1, §2, §3, §4, §5
# [8] = 96 h, Day 4, read-out: Day 4 IC50
# [9] = 264 h, Day 11, read-out: Day 11 IC50
# [10] = 168 h, Day 7, read-out: Day 7 IC50
# [11] = 336 h, Day 14, read-out: Day 14 IC50
# Chain of menin (O00255 whole entry, species assumed): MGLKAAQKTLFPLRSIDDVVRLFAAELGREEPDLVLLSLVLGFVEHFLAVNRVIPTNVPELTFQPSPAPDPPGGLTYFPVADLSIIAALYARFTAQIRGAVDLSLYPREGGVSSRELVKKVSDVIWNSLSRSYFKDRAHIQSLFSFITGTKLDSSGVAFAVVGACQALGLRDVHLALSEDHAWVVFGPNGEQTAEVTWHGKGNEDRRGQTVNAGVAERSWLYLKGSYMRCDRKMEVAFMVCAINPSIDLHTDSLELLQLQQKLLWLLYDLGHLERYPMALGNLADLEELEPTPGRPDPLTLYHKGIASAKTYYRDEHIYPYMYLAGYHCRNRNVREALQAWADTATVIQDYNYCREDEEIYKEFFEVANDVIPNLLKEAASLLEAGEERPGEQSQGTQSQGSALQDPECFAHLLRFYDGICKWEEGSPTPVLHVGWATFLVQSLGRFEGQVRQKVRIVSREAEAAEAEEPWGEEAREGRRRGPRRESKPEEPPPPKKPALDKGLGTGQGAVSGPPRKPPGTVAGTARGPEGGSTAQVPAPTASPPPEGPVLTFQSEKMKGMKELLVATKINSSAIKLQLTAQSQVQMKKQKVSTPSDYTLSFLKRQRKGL
smiles,measurement,setting,value
"O=C(Cc1cc(-c2cccnc2)n[nH]1)Nc1ccc(-c2nc3c(N4CCOCC4)ncnc3[nH]2)cc1 [Compound 12, N-{4-[6-(morpholin-4-yl)-9H-purin-8-yl]phenyl}-2-[3-(pyridin-3-yl)-1H-pyrazol-5-yl]acetamide]",Kd,[1],500 ± 200 nM
"O=C(Nc1ccc(-c2cc3c(N4CCOCC4)ncnc3[nH]2)cc1)Nc1cc(-c2cccnc2)n[nH]1 [Compound 9, 1-{4-[4-(morpholin-4-yl)-7H-pyrrolo[2,3-d]pyrimidin-6-yl]phenyl}-3-[3-(pyridin-3-yl)-1H-pyrazol-5-yl]urea]",IC50,[2]; [8],520 nM
same,IC50,[2]; [9],340 nM
same,IC50,[3]; [8],3310 nM
same,IC50,[3]; [9],2290 nM
same,IC50,[4]; [8],410 nM
same,IC50,[4]; [10],240 nM
same,IC50,[4]; [9],240 nM
same,IC50,[4]; [11],480 nM
same,IC50,[5]; [8],370 nM
same,IC50,[5]; [9],720 nM
same,IC50,[6]; [8],870 nM
same,IC50,[6]; [10],710 nM
same,IC50,[6]; [9],650 nM
same,IC50,[6]; [11],720 nM
same,IC50,[7]; [8],500 nM
same,IC50,[7]; [9],430 nM
